Measurements from US11634389B2 (priority 2018, dated 2023).

System: Monilinia fructicola isolate
Assay: Radial mycelial growth on SDHI-amended PDA, Monilinia fructicola isolate (FIG. 4)
Type: cell-based
Conditions: versus positive control fluxapyroxad
Protocol: FIG. 4 depicts the fungicidal performance of a compound according to the disclosure (“1831”) against Monilinia fructicola isolate against a blank control, as compared to fluxapyroxad, a commercially available fungicide (“fluxa”).
The inhibitory effects of these SDHI compounds were evaluated against the various pathogenic isolates grown on half-strength potato dextrose agar (PDA) amended with a given SDHI. SDHIs were formulated as 10,000 ppm stocks in DMSO. Inoculated media were prepared using a ratio of 12 g potato dextrose broth powder to 15 g agar to 1 L of deionized water. Upon autoclaving and cooling to 55° C., the media were inoculated with the SDHI compound of interest (1 mL of 10,000 ppm stock in 1 L media) then poured into plates. This method represented a 10 ppm trial for the SDHI compound. Mycelial plugs were cut from the leading growth of active fungal colonies (supported on full PDA media) and placed mycelia-down in the center of a plate. After an appropriate number of days (3-14 days, depending on pathogen), the radial growth was measured (average of three plates), and reported as the radial mycelial growth or as radial mycelial growth relative to a control. An analogous procedure was employed to determine the EC50 value by varying the concentration of the initial SDHI compound DMSO stock. […]

## Cn1ncc(C(=O)NC23CCC(c4ccccc42)C3(C)C)c1Cl (stereo not shown) [compound 1831]
  radial growth relative to that seen with fluxapyroxad: about half
